Results on 4 compounds are retold here after publication PMC12030497, “Plasma Protein Binding, Biostability, Metabolite Profiling, and CYP450 Phenotype of TPB15 Across Different Species: A Novel Smoothened Inhibitor for TNBC Therapy” (Pharmaceutics, 2025).

“And” between values parts separate entries of the source, which are not always exact repeats. Equal values may be shown once.

For data set [1], the target named is T1, CYP2A6 (Homo sapiens, UniProt P11509).
T1 construct: tissue Jiangsu Kejing Bio-Pharmaceutical Co., Ltd; host or cells: human liver microsomes
T1 sequence (P11509 1-494): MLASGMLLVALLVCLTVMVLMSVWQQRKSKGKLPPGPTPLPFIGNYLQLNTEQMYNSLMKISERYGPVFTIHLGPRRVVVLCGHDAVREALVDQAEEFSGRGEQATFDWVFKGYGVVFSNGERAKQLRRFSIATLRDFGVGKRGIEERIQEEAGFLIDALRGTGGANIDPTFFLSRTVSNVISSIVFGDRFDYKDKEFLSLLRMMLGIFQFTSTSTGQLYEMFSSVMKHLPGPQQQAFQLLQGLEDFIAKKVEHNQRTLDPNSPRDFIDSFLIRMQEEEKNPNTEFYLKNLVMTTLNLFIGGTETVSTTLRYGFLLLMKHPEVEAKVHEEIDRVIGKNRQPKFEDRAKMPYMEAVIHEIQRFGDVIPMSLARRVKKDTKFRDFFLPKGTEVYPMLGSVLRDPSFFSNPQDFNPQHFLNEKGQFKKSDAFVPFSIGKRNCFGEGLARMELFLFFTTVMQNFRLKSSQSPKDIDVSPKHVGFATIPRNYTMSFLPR
Put plainly: TPB15 metabolism in human liver microsomes with CYP2A6 inhibitor. Format: in vitro ADME. The note with it: inhibition of TPB15 metabolism, HLM, 90 min, Coumarin 25 μM (CYP2A6). The protocol: (§1) The specific inhibitors of P450 were employed to evaluate the metabolic phenotype of TPB15, and the metabolic enzymes corresponding to each inhibitor and the system concentration are shown in Table 2. The specific procedure was as follows: a total of 0.5 μL of the substrate TPB15 and 0.5 μL of each specific inhibitor were mixed with 449 μL of human liver microsomes, and the mixture was incubated at 37 °C for 10 min. Subsequently, 50 μL of NADPH with a concentration of 10 mM in PBS were introduced to initiate the reaction. After 90 min, 50 μL of the reaction mixture were transferred to a 150 μL ice-cold methanol solution containing an internal standard to terminate the reaction. The mixture was vortexed for 2 min and then centrifuged at 4 °C at 14,800 rpm for 10 min. A volume of 130 μL of the supernatant was then transferred to a new EP tube, which was centrifuged again at 4 °C at 14,800 rpm for another 10 min. Finally, 5 μL of the supernatant were injected for the determination of substrate TPB15 concentration. Three parallel samples were prepared for each time point. The experiment also included a positive control group and a negative control group. In the positive control group, substrate TPB15 was incubated with human liver microsomes for 90 min without the addition of inhibitors.
On the technique in general: Liver microsomes are a subcellular fraction often used to study metabolism.

In data set [2] the target is T2, CYP2C8 (Homo sapiens, UniProt P10632).
T2 construct: tissue Jiangsu Kejing Bio-Pharmaceutical Co., Ltd; host or cells: human liver microsomes
T2 sequence (P10632 1-490): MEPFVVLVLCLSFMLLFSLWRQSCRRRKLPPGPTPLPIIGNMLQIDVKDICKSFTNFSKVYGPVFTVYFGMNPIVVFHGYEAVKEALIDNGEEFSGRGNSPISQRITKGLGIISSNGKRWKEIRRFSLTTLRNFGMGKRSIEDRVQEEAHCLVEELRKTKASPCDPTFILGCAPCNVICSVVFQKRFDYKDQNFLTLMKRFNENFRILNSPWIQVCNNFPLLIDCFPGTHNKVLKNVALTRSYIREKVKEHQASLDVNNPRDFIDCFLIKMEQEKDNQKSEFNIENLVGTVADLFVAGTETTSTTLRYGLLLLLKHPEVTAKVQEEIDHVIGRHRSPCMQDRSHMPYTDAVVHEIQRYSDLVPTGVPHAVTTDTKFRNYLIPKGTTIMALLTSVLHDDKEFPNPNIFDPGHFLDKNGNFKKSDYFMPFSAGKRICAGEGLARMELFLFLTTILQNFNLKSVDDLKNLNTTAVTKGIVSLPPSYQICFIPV
The data set is described as follows: TPB15 metabolism in human liver microsomes with CYP2C8 inhibitor. It counts as in vitro ADME. The settings on record: inhibition of TPB15 metabolism, HLM, 90 min, Quercetin 20 μM (CYP2C8). The protocol: Three parallel samples were prepared for each time point.

Data set [3] has as its target CYP2C9 (Homo sapiens, UniProt P11712). The settings on record: inhibition of TPB15 metabolism, HLM, 90 min, Sulfaphenazole 20 μM (CYP2C9). As for the experimental part: as §1
The test system of data set [4] is CYP450 enzymes in human liver microsomes. The data set is described as follows: Metabolic enzyme phenotype of TPB15 in human liver microsomes with selective CYP450 inhibitors. The note with it: 90 min. It counts as in vitro ADME.
Method: The specific procedure was as follows: a total of 0.5 μL of the substrate TPB15 and 0.5 μL of each specific inhibitor were mixed with 449 μL of human liver microsomes, and the mixture was incubated at 37 °C for 10 min. Subsequently, 50 μL of NADPH with a concentration of 10 mM in PBS were introduced to initiate the reaction. After 90 min, 50 μL of the reaction mixture were transferred to a 150 μL ice-cold methanol solution containing an internal standard to terminate the reaction. The mixture was vortexed for 2 min and then centrifuged at 4 °C at 14,800 rpm for 10 min. A volume of 130 μL of the supernatant was then transferred to a new EP tube, which was centrifuged again at 4 °C at 14,800 rpm for another 10 min. Finally, 5 μL of the supernatant were injected for the determination of substrate TPB15 concentration. Three parallel samples were prepared for each time point. The experiment also included a positive control group and a negative control group. In the positive control group, substrate TPB15 was incubated with human liver microsomes for 90 min without the addition of inhibitors. In the negative control group, the substrate TPB15 was incubated for 90 min without inhibitors, with human liver microsomes replaced by an equal volume of phosphate-buffered saline (PBS). The metabolic rate of TPB15 in human liver microsomes was represented by the elimination rate of the substrate TPB15.
The nature of data set [5]: Metabolic stability in monkey liver microsomes (MLM). The note with it: MLM; for Concentration (ng/mL) of testosterone, Mean: positive control substrate. Format: in vitro ADME, crab-eating monkey. As for the experimental part:
(§2) A total of 450 μL liver microsomes from mice, rat, dog, monkey, and human were spiked with 0.5 μL of TPB15 solution and pre-incubated in a water bath at 37 °C for 10 min. Following this, 50 μL of NADPH were added to initiate the reaction. The concentrations of each substance in the incubation system are detailed in Table 1. After initiating the metabolic reaction, 50 μL aliquots were removed at incubation times of 0, 5, 15, 30, 45, 60, and 90 min and transferred to 150 μL of icy methanol solution containing the internal standard to terminate the reaction. The mixtures were swirled for 2 min and then centrifuged at 14,800 rpm at 4 °C for 10 min. […] Three samples were prepared in parallel at each time point. Additionally, both a positive control group and a blank control group were established. In the positive control group, substrate testosterone was incubated with liver microsomes from mice, rat, dog, monkey, and human. The concentrations of substrate testosterone were measured at 0 and 90 min, and the changes in concentration before and after incubation were compared to confirm the activity of the liver microsomes. The blank control group included one drug-containing inactivated liver microsome sample for each species. The metabolic stability parameters, including in vitro elimination half-life (T1/2) and in vitro intrinsic clearance rate (CLint), were calculated based on this graph using the following formulas: in vitro elimination half-life (T1/2) = −0.693/k and in vitro intrinsic clearance rate (CLint) = (0.693 × incubation medium (mL))/(liver microsomes (mg) × T1/2).

The nature of data set [6]: Metabolic stability in mouse liver microsomes (MouLM). Format: in vitro ADME, KM mice. The settings on record: MouLM, 0 min. As for the experimental part: as §2
Data set [7] can be described thus: Metabolic stability in rat liver microsomes (RLM). Format: in vitro ADME, Sprague-Dawley rat. The settings on record: RLM; for Concentration (ng/mL) of testosterone, Mean: positive control substrate. The protocol: as §2
The nature of data set [8]: Metabolic stability in human liver microsomes (HLM). It counts as in vitro ADME. The note with it: HLM; for Concentration (ng/mL) of testosterone, Mean: positive control substrate. As for the experimental part: as §2
A short description of data set [9]: Metabolic stability in dog liver microsomes (DLM). Format: in vitro ADME, beagle dog. The note with it: DLM; for Concentration (ng/mL) of testosterone, Mean: positive control substrate. As for the experimental part: as §2

Chain of CYP2C9 (P11712 whole entry): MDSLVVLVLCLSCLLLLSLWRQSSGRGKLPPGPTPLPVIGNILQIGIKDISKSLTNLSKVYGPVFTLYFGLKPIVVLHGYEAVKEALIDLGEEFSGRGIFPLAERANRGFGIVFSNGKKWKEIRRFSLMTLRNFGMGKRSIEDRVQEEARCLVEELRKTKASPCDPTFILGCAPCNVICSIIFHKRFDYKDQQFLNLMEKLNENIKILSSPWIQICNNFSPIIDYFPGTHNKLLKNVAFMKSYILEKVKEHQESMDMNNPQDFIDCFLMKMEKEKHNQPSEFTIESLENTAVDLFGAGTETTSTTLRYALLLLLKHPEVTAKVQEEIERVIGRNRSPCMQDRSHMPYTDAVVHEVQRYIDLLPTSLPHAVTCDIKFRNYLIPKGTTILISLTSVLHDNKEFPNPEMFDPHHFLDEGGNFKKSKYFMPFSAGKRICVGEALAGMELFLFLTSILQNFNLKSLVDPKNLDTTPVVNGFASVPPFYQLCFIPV

In the case of `O=c1ccc2ccccc2o1` [Coumarin], the “Inhibitor Rate (%)” value in [1] came to 6.60%.
Consider `O=c1c(O)c(-c2ccc(O)c(O)c2)oc2cc(O)cc(O)c12` [Quercetin], for which the “Inhibitor Rate (%)” value in data set [2] was found to be 8.63%.
With `Nc1ccc(S(=O)(=O)Nc2ccnn2-c2ccccc2)cc1` [Sulfaphenazole, reference compound], the “Inhibitor Rate (%)” value in [3] is 81.22%. The “effect of selective CYP450 inhibitor on TPB15 metabolism (significance vs positive control group)” value in [4] was “significantly inhibited”.
As for `C[C@]12CC[C@H]3[C@@H](CCC4=CC(=O)CC[C@@]43C)[C@@H]1CC[C@@H]2O` [testosterone], the “Concentration (ng/mL) of testosterone, single samples (serial number 1-3)” value is 293 ng/mL and 385 ng/mL and 301 ng/mL in data set [5] (0 min); 29.2 ng/mL and 39.7 ng/mL and 38.2 ng/mL in data set [5] (90 min); 400 ng/mL and 314 ng/mL and 356 ng/mL in data set [6]; 331 ng/mL and 303 ng/mL in data set [7] (0 min); 273 ng/mL and 379 ng/mL and 308 ng/mL in data set [8] (0 min); 19.2 ng/mL and 22.9 ng/mL and 34.7 ng/mL in data set [8] (90 min). For the same compound, the “Concentration (ng/mL) of testosterone, single samples (serial number 1-3)” value in data set [9] (0 min) was 300 ng/mL and 364 ng/mL and 375 ng/mL. Besides, the “Concentration (ng/mL) of testosterone, Mean” value in data set [5] (0 min) is 326.4 ng/mL; in [5] (90 min), 35.7 ng/mL; in data set [6] (positive control substrate) it was 356.7 ng/mL; in data set [7] (0 min), 321.7 ng/mL; in data set [7] (90 min), 22.6 ng/mL; in data set [8] (0 min) it was 320.0 ng/mL. The “Concentration (ng/mL) of testosterone, Mean” value in data set [8] (90 min) is 25.6 ng/mL; in data set [9] (0 min), 346.3 ng/mL; in data set [9] (90 min), 17.5 ng/mL.
